Patent publication US11369556B2, “Oral care composition comprising rottlerin” (Colgate-Palmolive Company, priority 2017, dated 2022)

Legend:
S. oralis [1] = assay: 10-hour bacterial growth, optical density readings, S. oralis; format: cell-based, Streptococcus oralis
Procedure: (§1) In particular, Tables 1-3 illustrate 10-hour bacterial growth in terms of optical density (OD) readings taken at one-hour intervals, where the density readings represent the amount of bacteria present.
(§2) The bacterial cultures were grown overnight and standardized to a 0.05 OD reading, after which, different concentrations of rottlerin were added, and the bacterial growth was monitored hourly for 10 hours using a plate reader.
Table 1 illustrates three examples of S. oralis bacterial growth: one showing the untreated growth of S. oralis, another showing the growth of S. oralis after treatment with 10 μM of rottlerin, and a final example showing the growth of S. oralis after treatment with 20 μM of rottlerin.

A. viscosus = assay: 10-hour bacterial growth, optical density readings, A. viscosus; format: cell-based, Actinomyces viscosus
Procedure: as §1, §2
Table 2 illustrates three examples of A. viscosus bacterial growth: an untreated A. viscosus growth, a growth of A. viscosus after treatment with 10 μM of rottlerin, and a growth of A. viscosus after treatment with 20 μM of rottlerin.

[2] = test system: mixed species, equal amounts of S. oralis, S. mutans, and A. viscosus; assay: 10-hour bacterial growth, optical density readings, mixed species; format: cell-based
Procedure: as §1, §2
Finally, Table 3 illustrates three examples of mixed species bacterial growth, including equal amounts of S. oralis, S. mutans, and A. viscosus species: an untreated growth, a growth of the mixed species after treatment with 10 μM of rottlerin, and a growth of the mixed species after treatment with 20 μM of rottlerin.

S. oralis [3] = assay: Metabolic activity of S. oralis, ATP assay; format: cell-based, Streptococcus oralis; settings: for Reduction of Metabolic Activity: incubated 1 hour at 37° C.
Procedure: (§3) S. ovalis is a representative streptococcus species of bacteria that colonize the oral cavity and may serve as a representative species for the efficacy of antimicrobial agents. Table 4 (below) illustrates the effects of rottlerin on the metabolic activity and cell viability of S. ovalis when treated with various concentrations of rottlerin. The metabolic activity of the S. ovalis bacteria was measured through ATP assays, and the cell viability was measured using a resazurin assay.
Similarly, the metabolic activity was measured through an ATP assay as follows: A culture of S. oralis bacteria was grown and standardized to a 610˜0.6 OD. 500 μl of the S. ovalis bacteria culture was then transferred to a clean and sterile micro-centrifuge tube and treated as above. Three 100 μl samples from each tube were then individually plated in individual wells of a 96-well plate and 100 μl of Bactitre glow ATP reagent was added. The metabolic activity of the S. oralis bacteria was then monitored by measuring luminescence, with an increase in luminescence correlating with higher metabolic cells.

S. oralis [4] = assay: Cell viability of S. oralis, resazurin assay; format: cell-based, Streptococcus oralis; settings: for Cell Viability: incubated 1 hour at 37° C.
Procedure: as §3
In particular, the cell viability of S. oralis was measured through a resazurin assay as follows: A culture of S. oralis bacteria was grown and standardized to a 610˜0.6 OD. 500 μl of the S. oralis bacteria culture was then transferred to a clean and sterile micro-centrifuge tube. The tube was then centrifuged at greater than 15,000 g for 10 minutes to pellet the bacteria. The tube samples were then treated with different amounts of rottlerin and resuspended in 1 ml of 0.25× Trypticase soy broth (TSB) in water. Control and dead samples were created by resuspending the pellet bacteria in sterile media or 100% ethanol, and without adding rottlerin. The tubes were then inverted 3 times for mixing and incubated at 37° C. for 1 hour. Afterwards, 1 ml of D/E neutralizing broth was added to each tube and the samples in the tubes were then washed and stained. The tubes were then centrifuged at greater than 15,000 g for 10 minutes to pellet the bacteria again. The supernate was then removed and the bacteria was resuspended in 1 ml of sterile 0.25× TSB wash. Three 100 μl samples from each tube were then each individually plated in individual wells of a 96-well plate. The samples were then prepared for a standard analytic curve by combining fixed ratios of the live and dead control samples. 100 μl of the resazurin dye solution were then added to each well, and the 96-well plate was then incubated at 37° C. until the live control samples turned the appropriate pink color. A fluorescence plate reader was then used to read the fluorescence of the resazurin dye at 560 nm excitation/590 nm emission, and a percentage of live and dead cells was then calculated.

[5] = low concentrations of rottlerin

Compound: CC(=O)c1c(O)c(C)c(O)c(Cc2c(O)c3c(c(C(=O)/C=C/c4ccccc4)c2O)OC(C)(C)C=C3)c1O [rottlerin, 5,7-dihydro-2,2-dimethyl-6-(2,4,6-trihydroxy-3-methyl-5-acetylbenzyl)-8-cinnamoyl-1,2-chromene]
- S. oralis growth (OD) (S. oralis [1]; 10 μM, exposure time 1 hour): 0.10 OD
- S. oralis growth (OD) (S. oralis [1]; 10 μM, exposure time 2 hours): 0.095 OD
- S. oralis growth (OD) (S. oralis [1]; 10 μM, exposure time 3 hours): 0.091 OD
- S. oralis growth (OD) (S. oralis [1]; 10 μM, exposure time 4 hours): 0.088 OD
- S. oralis growth (OD) (S. oralis [1]; 10 μM, exposure time 5 hours): 0.089 OD
- S. oralis growth (OD) (S. oralis [1]; 10 μM, exposure time 6 hours): 0.091 OD
- S. oralis growth (OD) (S. oralis [1]; 10 μM, exposure time 7 hours): 0.088 OD
- S. oralis growth (OD) (S. oralis [1]; 10 μM, exposure time 8 hours): 0.075 OD
- S. oralis growth (OD) (S. oralis [1]; 10 μM, exposure time 9 hours): 0.075 OD
- S. oralis growth (OD) (S. oralis [1]; 10 μM, exposure time 10 hours): 0.074 OD
- S. oralis growth (OD) (S. oralis [1]; 20 μM, exposure time 1 hour): 0.098 OD
- S. oralis growth (OD) (S. oralis [1]; 20 μM, exposure time 2 hours): 0.099 OD
- S. oralis growth (OD) (S. oralis [1]; 20 μM, exposure time 3 hours): 0.089 OD
- S. oralis growth (OD) (S. oralis [1]; 20 μM, exposure time 4 hours): 0.088 OD
- S. oralis growth (OD) (S. oralis [1]; 20 μM, exposure time 5 hours): 0.091 OD
- S. oralis growth (OD) (S. oralis [1]; 20 μM, exposure time 6 hours): 0.090 OD
- S. oralis growth (OD) (S. oralis [1]; 20 μM, exposure time 7 hours): 0.090 OD
- S. oralis growth (OD) (S. oralis [1]; 20 μM, exposure time 8 hours): 0.081 OD
- S. oralis growth (OD) (S. oralis [1]; 20 μM, exposure time 9 hours): 0.080 OD
- S. oralis growth (OD) (S. oralis [1]; 20 μM, exposure time 10 hours): 0.079 OD
- growth of bacteria compared to an untreated control (S. oralis [1]; S. oralis, low concentrations of rottlerin (Table 1)): significantly reduced
- A. viscosus growth (OD) (A. viscosus; 10 μM, exposure time 1 hour): 0.105 OD
- A. viscosus growth (OD) (A. viscosus; 10 μM, exposure time 2 hours): 0.112 OD
- A. viscosus growth (OD) (A. viscosus; 10 μM, exposure time 3 hours): 0.104 OD
- A. viscosus growth (OD) (A. viscosus; 10 μM, exposure time 4 hours): 0.093 OD
- A. viscosus growth (OD) (A. viscosus; 10 μM, exposure time 5 hours): 0.091 OD
- A. viscosus growth (OD) (A. viscosus; 10 μM, exposure time 6 hours): 0.087 OD
- A. viscosus growth (OD) (A. viscosus; 10 μM, exposure time 7 hours): 0.084 OD
- A. viscosus growth (OD) (A. viscosus; 10 μM, exposure time 8 hours): 0.085 OD
- A. viscosus growth (OD) (A. viscosus; 10 μM, exposure time 9 hours): 0.082 OD
- A. viscosus growth (OD) (A. viscosus; 10 μM, exposure time 10 hours): 0.079 OD
- A. viscosus growth (OD) (A. viscosus; 20 μM, exposure time 1 hour): 0.105 OD
- A. viscosus growth (OD) (A. viscosus; 20 μM, exposure time 2 hours): 0.122 OD
- A. viscosus growth (OD) (A. viscosus; 20 μM, exposure time 3 hours): 0.121 OD
- A. viscosus growth (OD) (A. viscosus; 20 μM, exposure time 4 hours): 0.115 OD
- A. viscosus growth (OD) (A. viscosus; 20 μM, exposure time 5 hours): 0.113 OD
- A. viscosus growth (OD) (A. viscosus; 20 μM, exposure time 6 hours): 0.106 OD
- A. viscosus growth (OD) (A. viscosus; 20 μM, exposure time 7 hours): 0.1 OD
- A. viscosus growth (OD) (A. viscosus; 20 μM, exposure time 8 hours): 0.097 OD
- A. viscosus growth (OD) (A. viscosus; 20 μM, exposure time 9 hours): 0.091 OD
- A. viscosus growth (OD) (A. viscosus; 20 μM, exposure time 10 hours): 0.086 OD
- growth of bacteria compared to an untreated control (A. viscosus; A. viscosus, low concentrations of rottlerin (Table 2)): significantly reduced
- Mixed species growth (OD) ([2]; 10 μM, exposure time 1 hour): 0.088 OD
- Mixed species growth (OD) ([2]; 10 μM, exposure time 3 hours): 0.083 OD
- Mixed species growth (OD) ([2]; 10 μM, exposure time 4 hours): 0.081 OD
- Mixed species growth (OD) ([2]; 10 μM, exposure time 5 hours): 0.082 OD
- Mixed species growth (OD) ([2]; 10 μM, exposure time 6 hours): 0.079 OD
- Mixed species growth (OD) ([2]; 10 μM, exposure time 7 hours): 0.076 OD
- Mixed species growth (OD) ([2]; 10 μM, exposure time 8 hours): 0.073 OD
- Mixed species growth (OD) ([2]; 10 μM, exposure time 9 hours (head of second time column, c2)): 0.085 OD
- Mixed species growth (OD) ([2]; 10 μM, exposure time 10 hours): 0.070 OD
- Mixed species growth (OD) ([2]; 20 μM, exposure time 1 hour): 0.089 OD
- Mixed species growth (OD) ([2]; 20 μM, exposure time 3 hours): 0.090 OD
- Mixed species growth (OD) ([2]; 20 μM, exposure time 4 hours): 0.089 OD
- Mixed species growth (OD) ([2]; 20 μM, exposure time 5 hours): 0.088 OD
- Mixed species growth (OD) ([2]; 20 μM, exposure time 6 hours): 0.085 OD
- Mixed species growth (OD) ([2]; 20 μM, exposure time 7 hours): 0.082 OD
- Mixed species growth (OD) ([2]; 20 μM, exposure time 8 hours): 0.076 OD
- Mixed species growth (OD) ([2]; 20 μM, exposure time 9 hours (head of second time column, c2)): 0.091 OD
- Mixed species growth (OD) ([2]; 20 μM, exposure time 10 hours): 0.071 OD
- growth of bacteria compared to an untreated control ([2]; mixed species, low concentrations of rottlerin (Table 3)): significantly reduced
- Reduction of Metabolic Activity (S. oralis [3]; Rottlerin Amt. 0.25 μg): 40%
- Reduction of Metabolic Activity (S. oralis [3]; Rottlerin Amt. 1.25 μg): 51%
- Reduction of Metabolic Activity (S. oralis [3]; Rottlerin Amt. 2.5 μg): 60%
- Reduction of Metabolic Activity (S. oralis [3]; Rottlerin Amt. 5 μg): 61%
- Reduction of Metabolic Activity (S. oralis [3]; Rottlerin Amt. 10 μg): 72%
- Reduction of Metabolic Activity (S. oralis [3]; Rottlerin Amt. 12.5 μg): 75%
- metabolic activity of S. oralis (S. oralis [3]; [5]): significantly negatively affected
- Cell Viability (S. oralis [4]; Rottlerin Amt. 0.25 μg): 79.5%
- Cell Viability (S. oralis [4]; Rottlerin Amt. 1.25 μg): 61%
- Cell Viability (S. oralis [4]; Rottlerin Amt. 2.5 μg): 49.4%
- Cell Viability (S. oralis [4]; Rottlerin Amt. 5 μg): 41.1%
- Cell Viability (S. oralis [4]; Rottlerin Amt. 10 μg): 25.9%
- Cell Viability (S. oralis [4]; Rottlerin Amt. 12.5 μg): 19.9%
- cell viability of S. oralis (S. oralis [4]; [5]): significantly negatively affected
